PubChem BioAssay AID1963444 (Molecular Pharmacology Branch, DTP, NCI, 2024)

System: HSSY-II complex spheroid growth, percent test/control
Experiment: Anticancer human tumor HSSY-II cell line growth inhibition [Asc];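 further: spheroids exposed to drug for 7 days before reading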
Conditions: for IC50: curve of first compound; for viability, T/C: stronger effect = lower value
Method in brief: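 Complex solid-tumor spheroids incorporating human endothelial and mesenchymal stem cells received single agents or combinations over half-log dilution ranges anchored to clinical Cmax.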

With `C=C(F)C(=O)N1CCN(c2nc(OCC3CCCN3C)nc3c2CCN(c2cccc4cccc(Cl)c24)C3)CC1CC#N` (stereo not given) + CNC(C)C(=O)NC1CN(S(=O)(=O)c2cccc(S(=O)(=O)N3CCC4CCC(C(=O)NC(c5ccccc5)c5ccccc5)N4C(=O)C(NC(=O)C(C)NC)C3)c2)CCC2CCC(C(=O)NC(c3ccccc3)c3ccccc3)N2C1=O the IC50 (second compound 0.01 µM) was 618 nM, the IC50 (second compound 0.0316 µM) was 1030 nM and the IC50 (second compound 0.1 µM) was 876 nM. The IC50 (second compound 0.316 µM) was 895 nM, the IC50 (second compound 1 µM) was 650 nM and the viability, T/C (second compound 0.01 µM, first compound 0.0316 µM) was 95.8%. For the same molecule, the viability, T/C (second compound 0.01 µM, first compound 0.1 µM) was 91%, the viability, T/C (second compound 0.01 µM, first compound 0.316 µM) was 61.4% and the viability, T/C (second compound 0.01 µM, first compound 1 µM) was 45.9%. For the same molecule, the viability, T/C (second compound 0.01 µM, first compound 3.16 µM) was 0.97%, the viability, T/C (second compound 0.01 µM, first compound 10 µM) was 0.1% and the viability, T/C (second compound 0.0316 µM, first compound 0.0316 µM) was 89.3%. The viability, T/C (second compound 0.0316 µM, first compound 0.1 µM) was 80.9%, the viability, T/C (second compound 0.0316 µM, first compound 0.316 µM) was 68.7% and the viability, T/C (second compound 0.0316 µM, first compound 1 µM) was 53.9%. For the same molecule, the viability, T/C (second compound 0.0316 µM, first compound 3.16 µM) was 0.93%, the viability, T/C (second compound 0.0316 µM, first compound 10 µM) was 0.1% and the viability, T/C (second compound 0.1 µM, first compound 0.0316 µM) was 90%. It also gave a viability, T/C (second compound 0.1 µM, first compound 0.1 µM) of 91.2%, a viability, T/C (second compound 0.1 µM, first compound 0.316 µM) of 79.3% and a viability, T/C (second compound 0.1 µM, first compound 1 µM) of 47.6%. It also gave a viability, T/C (second compound 0.1 µM, first compound 3.16 µM) of 0.66%, a viability, T/C (second compound 0.1 µM, first compound 10 µM) of 0.1% and a viability, T/C (second compound 0.316 µM, first compound 0.0316 µM) of 88.5%. It also gave a viability, T/C (second compound 0.316 µM, first compound 0.1 µM) of 74.5%, a viability, T/C (second compound 0.316 µM, first compound 0.316 µM) of 74.4% and a viability, T/C (second compound 0.316 µM, first compound 1 µM) of 47.8%. The viability, T/C (second compound 0.316 µM, first compound 3.16 µM) was 0.45%, the viability, T/C (second compound 0.316 µM, first compound 10 µM) was 0.12% and the viability, T/C (second compound 1 µM, first compound 0.0316 µM) was 79.6%. The viability, T/C (second compound 1 µM, first compound 0.1 µM) was 80.6%, the viability, T/C (second compound 1 µM, first compound 0.316 µM) was 65.1% and the viability, T/C (second compound 1 µM, first compound 1 µM) was 41.6%. The viability, T/C (second compound 1 µM, first compound 3.16 µM) was 0.37% and the viability, T/C (second compound 1 µM, first compound 10 µM) was 0.19%.

`Cn1ncnc1[C@H]1c2n[nH]c(=O)c3cc(F)cc(c23)N[C@@H]1c1ccc(F)cc1` + CCN1C(C(=O)NC23CCC(C(=O)O)(CC2)CC3)C(c2cccc(Cl)c2F)C2(C(=O)Nc3cc(Cl)ccc32)C12CCCCC2 was tested, and the IC50 (second compound 0.03 µM) was 10.7 nM, the IC50 (second compound 0.0949 µM) was 2.01 nM and the IC50 (second compound 0.3 µM) was < 0.316 nM. The IC50 (second compound 0.949 µM) was < 0.316 nM, the IC50 (second compound 3 µM) was < 0.316 nM and the viability, T/C (second compound 0.03 µM, first compound 0.000316 µM) was 91.9%. For the same molecule, the viability, T/C (second compound 0.03 µM, first compound 0.001 µM) was 89.6%, the viability, T/C (second compound 0.03 µM, first compound 0.00316 µM) was 68.1% and the viability, T/C (second compound 0.03 µM, first compound 0.01 µM) was 52.8%. The viability, T/C (second compound 0.03 µM, first compound 0.0316 µM) was 31.4%, the viability, T/C (second compound 0.03 µM, first compound 0.1 µM) was 19.6% and the viability, T/C (second compound 0.0949 µM, first compound 0.000316 µM) was 61.4%. The viability, T/C (second compound 0.0949 µM, first compound 0.001 µM) was 53.6%, the viability, T/C (second compound 0.0949 µM, first compound 0.00316 µM) was 47.1% and the viability, T/C (second compound 0.0949 µM, first compound 0.01 µM) was 31%. The viability, T/C (second compound 0.0949 µM, first compound 0.0316 µM) was 15.4%, the viability, T/C (second compound 0.0949 µM, first compound 0.1 µM) was 10.2% and the viability, T/C (second compound 0.3 µM, first compound 0.000316 µM) was 28.5%. For the same molecule, the viability, T/C (second compound 0.3 µM, first compound 0.001 µM) was 28.6%, the viability, T/C (second compound 0.3 µM, first compound 0.00316 µM) was 18.2% and the viability, T/C (second compound 0.3 µM, first compound 0.01 µM) was 10.4%. It also gave a viability, T/C (second compound 0.3 µM, first compound 0.0316 µM) of 6.69%, a viability, T/C (second compound 0.3 µM, first compound 0.1 µM) of 5.88% and a viability, T/C (second compound 0.949 µM, first compound 0.000316 µM) of 8.57%. It also gave a viability, T/C (second compound 0.949 µM, first compound 0.001 µM) of 7.9%, a viability, T/C (second compound 0.949 µM, first compound 0.00316 µM) of 7.26% and a viability, T/C (second compound 0.949 µM, first compound 0.01 µM) of 5.4%. For the same molecule, the viability, T/C (second compound 0.949 µM, first compound 0.0316 µM) was 6.11%, the viability, T/C (second compound 0.949 µM, first compound 0.1 µM) was 6.09% and the viability, T/C (second compound 3 µM, first compound 0.000316 µM) was 2.41%. The viability, T/C (second compound 3 µM, first compound 0.001 µM) was 2.9%, the viability, T/C (second compound 3 µM, first compound 0.00316 µM) was 4.02% and the viability, T/C (second compound 3 µM, first compound 0.01 µM) was 2.59%. It also gave a viability, T/C (second compound 3 µM, first compound 0.0316 µM) of 1.88% and a viability, T/C (second compound 3 µM, first compound 0.1 µM) of 4.41%.

`Cc1nc(N2CCC3(CC2)COC(C)C3N)c(CO)nc1Sc1ccnc(N)c1Cl` (stereo not given) + CCN1C(C(=O)NC23CCC(C(=O)O)(CC2)CC3)C(c2cccc(Cl)c2F)C2(C(=O)Nc3cc(Cl)ccc32)C12CCCCC2 was tested, and the IC50 (second compound 0.03 µM) was > 3000 nM, the IC50 (second compound 0.0949 µM) was 612 nM and the IC50 (second compound 0.3 µM) was < 9.49 nM. For the same molecule, the IC50 (second compound 0.949 µM) was < 9.49 nM, the IC50 (second compound 3 µM) was < 9.49 nM and the viability, T/C (second compound 0.03 µM, first compound 0.00949 µM) was 105%. The viability, T/C (second compound 0.03 µM, first compound 0.03 µM) was 97.6%, the viability, T/C (second compound 0.03 µM, first compound 0.0949 µM) was 100% and the viability, T/C (second compound 0.03 µM, first compound 0.3 µM) was 93.2%. The viability, T/C (second compound 0.03 µM, first compound 0.949 µM) was 88.8%, the viability, T/C (second compound 0.03 µM, first compound 3 µM) was 59.8% and the viability, T/C (second compound 0.0949 µM, first compound 0.00949 µM) was 64%. For the same molecule, the viability, T/C (second compound 0.0949 µM, first compound 0.03 µM) was 59.3%, the viability, T/C (second compound 0.0949 µM, first compound 0.0949 µM) was 57.6% and the viability, T/C (second compound 0.0949 µM, first compound 0.3 µM) was 58.7%. The viability, T/C (second compound 0.0949 µM, first compound 0.949 µM) was 44.3%, the viability, T/C (second compound 0.0949 µM, first compound 3 µM) was 36.6% and the viability, T/C (second compound 0.3 µM, first compound 0.00949 µM) was 23.8%. For the same molecule, the viability, T/C (second compound 0.3 µM, first compound 0.03 µM) was 22.2%, the viability, T/C (second compound 0.3 µM, first compound 0.0949 µM) was 23.4% and the viability, T/C (second compound 0.3 µM, first compound 0.3 µM) was 23.2%. The viability, T/C (second compound 0.3 µM, first compound 0.949 µM) was 14.6%, the viability, T/C (second compound 0.3 µM, first compound 3 µM) was 18.5% and the viability, T/C (second compound 0.949 µM, first compound 0.00949 µM) was 7.31%. It also gave a viability, T/C (second compound 0.949 µM, first compound 0.03 µM) of 6.01%, a viability, T/C (second compound 0.949 µM, first compound 0.0949 µM) of 4.66% and a viability, T/C (second compound 0.949 µM, first compound 0.3 µM) of 3.37%. For the same molecule, the viability, T/C (second compound 0.949 µM, first compound 0.949 µM) was 2.01%, the viability, T/C (second compound 0.949 µM, first compound 3 µM) was 2.02% and the viability, T/C (second compound 3 µM, first compound 0.00949 µM) was 1.65%. It also gave a viability, T/C (second compound 3 µM, first compound 0.03 µM) of 1.25%, a viability, T/C (second compound 3 µM, first compound 0.0949 µM) of 0.81% and a viability, T/C (second compound 3 µM, first compound 0.3 µM) of 0.41%. The viability, T/C (second compound 3 µM, first compound 0.949 µM) was 0.35% and the viability, T/C (second compound 3 µM, first compound 3 µM) was 0.42%.
